In patent US9150510B2, “Amino acid derivative” (NIPPON ZOKI PHARMACEUTICAL CO., LTD., priority 2008, dated 2015):
Where a name gives a salt, the structure may show the parent alone.

What was measured:
[1] = Test of blood kinetics in the rats; assay type: in vivo; settings: rat, plasma, 2 mg/kg, fasted Wistar male rats, oral single dose of mixed solution of five compounds, each compound 2 mg/5 mL/kg, n=5, LC-MS; for AUC(0-inf): read-out: AUC0-∞ (area under the curve for concentration in blood, time 0 to infinite hours); for Cmax: read-out: Cmax (maximum concentration in plasma)
Method: Ten milligrams of a compound of the present invention was properly converted to a sodium salt with the same amount of sodium hydroxide, where necessary, and each was dissolved in 5 mL of water. Five compounds each among these aqueous solutions of the compounds of the present inventions were mixed, to prepare a mixed solution containing 0.4 mg/mL each of each compound. Six-week old Wistar SPF male rats that were fasted were orally administered with the mixed solution in a single dose using a gavage tube (each compound 2 mg/5 mL/kg, n=5). At time points of 0.25, 0.5, 1, 2, 4, and 8 hours after the administration, about 150 μL of blood was collected using a heparin-added capillary tube from veins of rat tails. The capillary tubes were centrifuged to collect the plasma. The plasma sample was deprotenized and the supernatant was diluted to prepare each of measurement sample solutions. The concentration of the compound of the present invention in each of measurement sample solutions was quantified using LC-MS, and Cmax (maximum concentration in plasma) and AUC (area under the curve for concentration in blood, time 0 to infinite (∞) hours) of the compounds of the present invention were calculated.

[2] = test system: ddY-type mice; test: Analgesic efficacy test (1): acetic acid writhing test (nociceptive pain model animal); assay type: in vivo; settings: Mus musculus, 25 min, writhing number, male ddY mice, acetic acid i.p. 25 min after administration, mean ± standard error, read-out: Percent Suppression (%); for inhibition in vivo at 10 mg/kg: oral single dose 10 mg/kg; for inhibition in vivo at 100 mg/kg: oral single dose 100 mg/kg; for inhibition in vivo at 3 mg/kg: oral single dose 3 mg/kg
From the text: A compound of the present invention was orally administered to mice, to carry out an analgesic efficacy test according to acetic acid writhing test (nociceptive pain model animal). As an experimental animal, 4-week old male ddY-type mice were previously bred, and thereafter 8 mice per one group were used in the experiment. A solution or suspension prepared by dissolving or suspending a compound of the present invention in a 0.5% (w/v) aqueous CMC-Na solution was orally administered as a test substance in a single dose. While, to a control group, a 0.5% (w/v) aqueous CMC-Na solution was administered in the same manner. After 25 minutes from administration, the mice were intraperitoneally administered with a 0.7% (v/v) acetic acid/physiological saline at the dose of 10 mL/kg. From 5 minutes thereafter, writhing number in a 10-minute period was counted, and a suppressive rate for each individual (mean±standard error) was calculated by the following formula: […]
In the test for significance difference, Baltlett's test was carried out in the comparison between multiple groups of the group administered with test substance with the control group. In the case of homoscedasticity, Dunnett's multiple comparison test of parametrics, and in the case of heteroscedasticity, Dunnett's multiple comparison test of non-parametrics were used. In addition, in the test of dose dependency, Jockheere-Terpstra's test was used. In all cases, significance difference was considered to be found at P<0.05.

Row | AUC(0-inf) [1] [µg·h/mL] | Cmax [1] [µg/mL] | SMILES | inhibition in vivo at 10 mg/kg [2] [%] | inhibition in vivo at 100 mg/kg [2] [%] | further results
1 | 116 | 33 | COc1ccc(C[C@H](NC(=O)C=Cc2ccc(F)cc2F)C(=O)O)cc1 [Compound 51, N-[3-(2,4-Difluorophenyl)acryloyl]-O^4-Methyl-L-Tyrosine] | 42.2 ± 9.1 |  | 
2 |  |  | COc1ccc(C[C@H](NC(=O)C=Cc2ccccc2Cl)C(=O)O)cc1 [Compound 49, N-[3-(2-Chlorophenyl)acryloyl]-O^4-methyl-L-tyrosine] |  | 31.8 ± 7 | 
3 |  |  | O=C(C=Cc1ccccc1F)N[C@@H](CO)C(=O)O [Compound 66, N-[3-(2-Fluorophenyl)acryloyl]-L-serine] |  | 56 ± 6.9 | 
4 | 6.8 | 1.5 | Cn1cc(C[C@H](NC(=O)C(C#N)=Cc2ccccc2F)C(=O)O)c2ccccc21 [Compound 37, N^α-[2-Cyano-3-(2-fluorophenyl)acryloyl]-1-methyl-L-tryptophan] | 37.9 ± 7.5 |  | 
5 |  |  | O=C(C=Cc1ccc(O)cc1)N[C@@H](Cc1c[nH]c2ccccc12)C(=O)O [Compound 7, N^α-[3-(4-Hydroxyphenyl)acryloyl]-L-tryptophan] |  | 37.3 ± 11.8 | 
6 | 11.4 | 2.3 | Cn1cc(C[C@H](NC(=O)C=Cc2ccc(C#N)cc2)C(=O)O)c2ccccc21 [Compound 36, N^α-[3-(4-Cyanophenyl)acryloyl]-1-methyl-L-tryptophan] | 49.7 ± 11.3 |  | 
7 | 38.2 | 18 | COc1ccc(C[C@H](NC(=O)C=Cc2cc(F)ccc2F)C(=O)O)cc1 [Compound 52, N-[3-(2,5-Difluorophenyl)acryloyl]-O^4-methyl-L-tyrosine] |  |  | inhibition in vivo at 3 mg/kg [2]: 50.9 ± 7.4%
8 | 404 | 53.3 | Cn1cc(C[C@H](NC(=O)C=Cc2ccccc2F)C(=O)O)c2ccccc21 [Compound 27, N^α-[3-(2-Fluorophenyl)acryloyl]-1-methyl-L-tryptophan] |  |  | inhibition in vivo at 3 mg/kg [2]: 45 ± 10%
9 |  |  | O=C(C=Cc1cccc(O)c1)N[C@@H](Cc1c[nH]c2ccccc12)C(=O)O [Compound 6, N^α-[3-(3-Hydroxyphenyl)acryloyl]-L-tryptophan] |  | 39.2 ± 15.4 | 
10 |  |  | COc1ccc(C[C@H](NC(=O)C=Cc2cc(C(F)(F)F)cc(C(F)(F)F)c2)C(=O)O)cc1 [Compound 53, N-{3-[3,5-Bis(trifluoromethyl)phenyl]acryloyl}-O^4-methyl-L-tyrosine] |  | 32 ± 14.6 | 
11 | 183 | 37.7 | Cn1cc(C[C@H](NC(=O)C=Cc2ccc(F)cc2)C(=O)O)c2ccccc21 [Compound 28, N^α-[3-(4-Fluorophenyl)acryloyl]-1-methyl-L-tryptophan] | 56.5 ± 5.3 |  | 
12 |  |  | Cn1cc(C[C@H](NC(=O)C=Cc2ccccc2O)C(=O)O)c2ccccc21 [Compound 26, N^α-[3-(2-Hydroxyphenyl)acryloyl]-1-methyl-L-tryptophan] | 30.5 ± 9.2 |  | 
13 |  |  | COc1ccc(C[C@H](NC(=O)C=Cc2ccccc2C#N)C(=O)O)cc1 [Compound 46, N-[3-(2-Cyanophenyl)acryloyl]-O^4-methyl-L-tyrosine] |  | 38.7 ± 11.3 | 
14 | 148 | 15 | O=C(C=Cc1ccccc1F)N[C@H](Cc1c[nH]c2ccccc12)C(=O)O [Compound 24, N^α-[3-(2-Fluorophenyl)acryloyl]-D-tryptophan] | 35.8 ± 9.3 |  | 
15 | 57.7 | 18.8 | COc1ccc(C[C@H](NC(=O)C=Cc2ccc(F)cc2)C(=O)O)cc1 [Compound 42, N-[3-(4-Fluorophenyl)acryloyl]-O^4-methyl-L-tyrosine] |  | 52.7 ± 8.3 | 
16 | 6.8 | 1.5 | N#CC(=Cc1ccccc1)C(=O)N[C@@H](Cc1c[nH]c2ccccc12)C(=O)O [Compound 25, N^α-(2-Cyano-3-phenylacryloyl)-L-tryptophan] | 41.2 ± 11.1 |  | 

Row | AUC(0-inf) [1] [µg·h/mL] | Cmax [1] [µg/mL] | SMILES | inhibition in vivo at 10 mg/kg [2] [%] | inhibition in vivo at 100 mg/kg [2] [%] | further results
17 |  |  | O=Cn1cc(C[C@H](NC(=O)C=Cc2ccccc2F)C(=O)O)c2ccccc21 [Compound 68, N^α-[3-(2-Fluorophenyl)acryloyl]-1-formyl-L-tryptophan] |  | 55.4 ± 9.9 | 
18 | 61.7 | 48.7 | COc1ccc(C[C@H](NC(=O)C=Cc2ccccc2F)C(=O)O)cc1 [Compound 40, N-[3-(2-Fluorophenyl)acryloyl]-O^4-methyl-L-tyrosine] | 42.3 ± 7 |  | 
19 |  |  | COc1ccc(C[C@H](NC(=O)C=Cc2ccccc2C(F)(F)F)C(=O)O)cc1 [Compound 47, O^4-Methyl-N-[3-(2-Trifluoromethylphenyl)acryloyl]-L-Tyrosine] |  | 36.2 ± 11.2 | 
20 |  |  | O=C(C=Cc1ccccc1Cl)N[C@@H](Cc1c[nH]c2ccccc12)C(=O)O [Compound 12, N^α-[3-(2-Chlorophenyl)acryloyl]-L-tryptophan] |  | 34.9 ± 11.5 | 
21 |  |  | COc1ccc(C[C@H](NC(=O)C=Cc2cccc(F)c2)C(=O)O)cc1 [Compound 41, N-[3-(3-Fluorophenyl)acryloyl]-O^4-methyl-L-tyrosine] |  | 47.3 ± 15.7 | 
22 |  |  | NCCCC[C@H](NC(=O)C=Cc1ccccc1F)C(=O)O [Compound 61, N^α-[3-(2-Fluorophenyl)acryloyl]-L-lysine hydrochloride] |  | 40.5 ± 7.8 | 
23 |  |  | Cn1cc(C[C@H](NC(=O)C=Cc2c(F)cccc2F)C(=O)O)c2ccccc21 [Compound 31, N^α-[3-(2,6-Difluorophenyl)acryloyl]-1-methyl-L-tryptophan] |  | 31.5 ± 9.7 | 
24 |  |  | COc1ccc(C[C@H](NC(=O)C=Cc2ccccc2OC)C(=O)O)cc1 [Compound 48, N-[3-(2-Methoxyphenyl)acryloyl]-O^4-methyl-L-tyrosine] | 43.2 ± 7.3 |  | 
25 |  |  | COc1ccc(C[C@H](NC(=O)C=Cc2cccc(O)c2)C(=O)O)cc1 [Compound 43, N-[3-(3-Hydroxyphenyl)acryloyl]-O^4-methyl-L-tyrosine] | 45.3 ± 10.8 |  | 
26 |  |  | O=C(C=Cc1ccccc1F)N[C@@H](Cc1ccc(O)cc1)C(=O)O [Compound 62, N-[3-(2-Fluorophenyl)acryloyl]-L-tyrosine] | 39.2 ± 13.5 |  | 
27 |  |  | NCCC[C@H](NC(=O)C=Cc1ccccc1F)C(=O)O [Compound 63, N^α-[3-(2-Fluorophenyl)acryloyl]-L-ornithine hydrochloride] | 41.1 ± 7.8 |  | 
28 |  |  | COc1ccc(C[C@H](NC(=O)C=Cc2c(F)cccc2F)C(=O)O)cc1 [Compound 50, N-[3-(2,6-Difluorophenyl)acryloyl]-O^4-methyl-L-tyrosine] |  | 35.1 ± 15.4 | 
29 |  |  | COc1ccc(C[C@H](NC(=O)C=Cc2cccc(C#N)c2)C(=O)O)cc1 [Compound 54, N-[3-(3-Cyanophenyl)acryloyl]-O^4-methyl-L-tyrosine] |  | 33.3 ± 10 | 
30 |  |  | COc1ccc(C[C@H](NC(=O)C=Cc2ccc(O)cc2)C(=O)O)cc1 [Compound 44, N-[3-(4-Hydroxyphenyl)acryloyl]-O^4-methyl-L-tyrosine] | 48 ± 10.3 |  | 
31 |  |  | Cn1cc(C[C@H](NC(=O)C=Cc2ccc(Oc3ccccc3)cc2)C(=O)O)c2ccccc21 [Compound 35, 1-Methyl-N^α-[3-(4-phenoxyphenyl)acryloyl]-L-tryptophan] |  | 55.2 ± 7.4 | 
32 |  |  | NC(=O)CC[C@H](NC(=O)C=Cc1ccccc1F)C(=O)O [Compound 65, N^α-[3-(2-Fluorophenyl)acryloyl]-L-glutamine] |  | 31.6 ± 13.1 | 
